The values below come from DBAASP.

Holding throughout (test): ≥ marks a high value that may be exact or a test limit, other limits are often not marked, values filed in µg/mL are converted to µM
The subject of test [1] is Escherichia coli ATCC 11775.
Test [2] concerns Staphylococcus aureus ATCC 12600.
For test [3], the system named is Staphylococcus aureus NCTC 10788.
Test [4] deals with Escherichia coli NCTC 10418.
Test [5] has as its system Candida albicans NCYC 1467.
Test [6] relates to Staphylococcus aureus ATCC 29213.
The subject of test [7] is Staphylococcus aureus ATCC 33591.
For test [8], the system named is Klebsiella pneumoniae ATCC 700603.
Test [9] has as its system Pseudomonas aeruginosa ATCC 27853.
Test [10] relates to Staphylococcus aureus ATCC 700699.
The subject of test [11] is Escherichia coli ATCC 25922.
For test [12], the system named is Staphylococcus aureus ATCC BAA-1556.
Test [13] deals with Escherichia coli BW25113.
In test [14] the test system is Enterococcus faecalis ATCC 29212.
The test system of test [15] is Salmonella enterica subsp. enterica serovar Pullorum C79-13.
The test system of test [16] is Salmonella enterica subsp. enterica serovar Typhimurium C77-31.
Test [17] deals with Staphylococcus epidermidis ATCC 12228.

Structures are written as SMILES. Values after ≈ are worked out from the molar mass of the structure shown.

Take `CC(C)C[C@H](NC(=O)[C@H](C)NC(=O)[C@H](CC(C)C)NC(=O)[C@@H]1CCCN1C(=O)[C@H](Cc1ccccc1)NC(=O)[C@@H](N)Cc1ccccc1)C(=O)N[C@@H](CC(C)C)C(=O)N[C@H]1CSSC[C@@H](C(=O)O)NC(=O)[C@H](CCCCN)NC(=O)[C@H](CCCCN)NC(=O)[C@H](Cc2ccccc2)NC(=O)[C@H](C(C)C)NC(=O)[C@H](CCCCN)NC1=O` [FFPLALLCKVFKKC]: the MIC (as a rule, the smallest concentration in the dilution series that meets the test's criterion for growth inhibition) in test [1] is 25 µM (≈ 41.4 µg/mL); in test [2], not below 100 µM.
For the compound `CC[C@H](C)[C@H](NC(=O)CNC(=O)CNC(=O)[C@H](C)NC(=O)[C@@H](NC(=O)[C@H](CCCCN)NC(=O)[C@@H]1CCCN1C(=O)[C@@H](NC(=O)[C@H](CCSC)NC(=O)[C@H](CO)NC(=O)[C@H](Cc1ccccc1)NC(=O)[C@@H](N)Cc1ccccc1)[C@@H](C)CC)[C@@H](C)CC)C(=O)N[C@@H](C)C(=O)N[C@@H](CO)C(=O)N[C@@H](CC(C)C)C(=O)N[C@H](C(=O)N[C@@H](CCCCN)C(=O)N[C@@H](CC(N)=O)C(=O)N[C@@H](CC(C)C)C(N)=O)C(C)C` [FFSMIPKIAGGIASLVKNL], the values for the MIC in [3], in test [4] and in [5] were 3.99 µM (≈ 8 µg/mL), not below 63.8 µM and 3.99 µM (≈ 8 µg/mL), respectively.
Take `CC[C@H](C)[C@H](NC(=O)[C@H](CC(=O)O)NC(=O)[C@H](CCCCN)NC(=O)[C@H](C)NC(=O)[C@H](C)NC(=O)CNC(=O)[C@H](CCCCN)NC(=O)[C@H](CC(C)C)NC(=O)[C@@H](NC(=O)[C@H](CC(=O)O)NC(=O)[C@@H](NC(=O)[C@H](C)NC(=O)CN)C(C)C)[C@@H](C)CC)C(=O)N[C@@H](C)C(=O)NCC(=O)N[C@@H](Cc1cnc[nH]1)C(=O)N[C@@H](CC(C)C)C(=O)N[C@@H](C)C(=O)N[C@@H](CO)C(=O)N[C@@H](CCCCN)C(=O)N[C@H](C(=O)N[C@@H](CCSC)C(=O)N[C@@H](CC(N)=O)C(=O)N[C@@H](CCCCN)C(=O)N[C@@H](CC(C)C)C(N)=O)C(C)C` [GAVDILKGAAKDIAGHLASKVMNKL]: the MIC was more than 100 µM in test [6]; not below 100 µM in test [7]; more than 100 µM in test [8]; more than 100 µM in [9]; not below 100 µM in test [10]; more than 100 µM in [11].
Compound `CC[C@H](C)[C@H](NC(=O)[C@H](Cc1c[nH]c2ccccc12)NC(=O)[C@H](CCCN=C(N)N)NC(=O)[C@H](CCCN=C(N)N)NC(=O)[C@H](CC(C)C)NC(=O)[C@@H](N)CCCCN)C(=O)N[C@@H](CCCN=C(N)N)C(=O)N[C@@H](Cc1c[nH]c2ccccc12)C(=O)N[C@@H](CC(C)C)C(N)=O` [KLRRWIRWL] returned an MIC in [12] of 25 µM (≈ 33.1 µg/mL).
With `CC[C@H](C)[C@H](NC(=O)[C@H](Cc1c[nH]c2ccccc12)NC(=O)[C@H](CCCN=C(N)N)NC(=O)[C@H](CCCN=C(N)N)NC(=O)[C@H](Cc1c[nH]c2ccccc12)NC(=O)[C@@H](N)CCCCN)C(=O)N[C@@H](CCCN=C(N)N)C(N)=O` [KWRRWIR], the MIC in test [12] is not below 100 µM.
In [12], `CC(C)C[C@H](NC(=O)[C@H](CC(C)C)NC(=O)[C@H](CC(C)C)NC(=O)[C@H](CC(C)C)NC(=O)[C@H](CC(C)C)NC(=O)[C@H](CCCCN)NC(=O)[C@H](CC(C)C)NC(=O)[C@@H](N)CC(C)C)C(=O)N[C@@H](CCCCN)C(N)=O` [LLKLLLLLK] returned an MIC not below 100 µM.
On the same count and under the same terms, in the case of `CC(C)C[C@H](NC(=O)[C@H](CC(C)C)NC(=O)[C@H](CC(C)C)NC(=O)[C@H](CC(C)C)NC(=O)[C@H](CC(C)C)NC(=O)[C@H](CC(C)C)NC(=O)[C@H](CCCCN)NC(=O)[C@H](CC(C)C)NC(=O)[C@@H](N)CC(C)C)C(N)=O` [LLKLLLLLL] it was not below 100 µM.
Compound `CC[C@H](C)[C@H](NC(=O)[C@@H]1CCCN1C(=O)[C@H](CCCN=C(N)N)NC(=O)[C@H](CCCN=C(N)N)NC(=O)[C@H](Cc1ccccc1)NC(=O)[C@@H](N)CCCN=C(N)N)C(=O)N[C@@H](CCCN=C(N)N)C(=O)N[C@@H](CCCN=C(N)N)C(=O)N[C@@H](CCCN=C(N)N)C(=O)N1CCC[C@H]1C(=O)N[C@H](C(=O)N[C@@H](CCCN=C(N)N)C(=O)N1CCC[C@H]1C(=O)N1CCC[C@H]1C(=O)N[C@@H](Cc1ccccc1)C(=O)N[C@@H](Cc1c[nH]c2ccccc12)C(=O)N[C@@H](CCCN=C(N)N)C(=O)O)[C@@H](C)CC` [RFRRPIRRRPIRPPFWR] showed an MIC in [13] of 8 µM (≈ 18.9 µg/mL).
For `NCCCC[C@H](NC(=O)[C@H](Cc1c[nH]c2ccccc12)NC(=O)[C@H](Cc1c[nH]c2ccccc12)NC(=O)[C@H](CCCCN)NC(=O)[C@@H](N)CCCN=C(N)N)C(N)=O` [RKWWK], the values for the MIC in test [2] and in test [11] were not below 77.8 µM and more than 77.8 µM, respectively.
In turn, `CC[C@H](C)[C@H](NC(=O)[C@@H]1CCCN1C(=O)[C@H](CCCN=C(N)N)NC(=O)[C@H](CCCN=C(N)N)NC(=O)[C@H](Cc1c[nH]c2ccccc12)NC(=O)[C@@H](N)CCCN=C(N)N)C(=O)N[C@@H](CCCN=C(N)N)C(=O)N[C@@H](CCCN=C(N)N)C(=O)N[C@@H](CCCN=C(N)N)C(=O)N1CCC[C@H]1C(=O)N[C@H](C(=O)N[C@@H](CCCN=C(N)N)C(=O)N1CCC[C@H]1C(=O)N1CCC[C@H]1C(=O)N[C@@H](Cc1ccccc1)C(=O)N[C@@H](Cc1ccc(O)cc1)C(=O)N1CCC[C@H]1C(=O)O)[C@@H](C)CC` [RWRRPIRRRPIRPPFYP] yielded an MIC in test [13] of 8 µM (≈ 18.6 µg/mL).
On the same count and under the same terms, in the case of `CC[C@H](C)[C@H](NC(=O)[C@@H]1CCCN1C(=O)[C@H](Cc1c[nH]c2ccccc12)NC(=O)[C@H](CCCN=C(N)N)NC(=O)[C@H](Cc1c[nH]c2ccccc12)NC(=O)[C@@H](N)CCCN=C(N)N)C(=O)N[C@@H](CCCN=C(N)N)C(=O)N[C@@H](CCCN=C(N)N)C(=O)N[C@@H](CCCN=C(N)N)C(=O)N1CCC[C@H]1C(=O)N[C@H](C(=O)N[C@@H](CCCN=C(N)N)C(=O)N1CCC[C@H]1C(=O)N1CCC[C@H]1C(=O)N[C@@H](Cc1c[nH]c2ccccc12)C(=O)N[C@@H](Cc1ccc(O)cc1)C(=O)N[C@@H](CCCN=C(N)N)C(=O)O)[C@@H](C)CC` [RWRWPIRRRPIRPPWYR] it was 4 µM (≈ 9.79 µg/mL).
For `NCCCC[C@H](NC(=O)CNC(=O)[C@H](CC(N)=O)NC(=O)[C@H](CCC(=O)O)NC(=O)[C@H](Cc1c[nH]c2ccccc12)NC(=O)[C@H](CCCCN)NC(=O)[C@H](Cc1c[nH]c2ccccc12)NC(=O)[C@H](CCCCN)NC(=O)[C@@H](N)Cc1c[nH]c2ccccc12)C(=O)N[C@@H](Cc1c[nH]c2ccccc12)C(=O)N[C@@H](CCCCN)C(=O)N[C@@H](Cc1c[nH]c2ccccc12)C(=O)N[C@@H](CCCCN)C(=O)N[C@@H](Cc1c[nH]c2ccccc12)C(=O)O` [WKWKWENGKWKWKW], the MIC was 32 µM (≈ 66.4 µg/mL) in test [6]; 64 µM (≈ 133 µg/mL) in test [14]; 8 µM (≈ 16.6 µg/mL) in [15]; not below 32 µM in [16]; 32 µM (≈ 66.4 µg/mL) in [17]; 2 µM (≈ 4.15 µg/mL) in [11].
Consider `CC(C)C[C@H](NC(=O)[C@H](Cc1c[nH]c2ccccc12)NC(=O)[C@H](Cc1c[nH]c2ccccc12)NC(=O)[C@H](CC(C)C)NC(=O)[C@H](Cc1c[nH]c2ccccc12)NC(=O)[C@@H](N)Cc1c[nH]c2ccccc12)C(=O)N[C@@H](CCCN=C(N)N)C(N)=O` [WWLWWLR], for which the MIC in test [12] stood at 12.5 µM (≈ 14.3 µg/mL).
On to `CC[C@H](C)[C@H](NC(=O)[C@H](Cc1ccccc1)NC(=O)[C@H](CS)NC(=O)[C@@H](NC(=O)[C@H](CO)NC(=O)[C@@H](N)Cc1ccc(O)cc1)[C@@H](C)O)C(=O)N[C@@H](CCSC)C(=O)NCC(=O)NCC(=O)NCC(=O)N[C@@H](Cc1c[nH]c2ccccc12)C(=O)N[C@@H](CCCCN)C(=O)N[C@@H](Cc1c[nH]c2ccccc12)C(=O)N[C@@H](CCCCN)C(=O)N[C@@H](Cc1c[nH]c2ccccc12)C(=O)N[C@@H](CCC(=O)O)C(=O)N[C@@H](CC(N)=O)C(=O)NCC(=O)N[C@@H](CCCCN)C(=O)N[C@@H](Cc1c[nH]c2ccccc12)C(=O)N[C@@H](CCCCN)C(=O)N[C@@H](Cc1c[nH]c2ccccc12)C(=O)N[C@@H](CCCCN)C(=O)N[C@@H](Cc1c[nH]c2ccccc12)C(=O)O` [YSTCFIMGGGWKWKWENGKWKWKW], for which the MIC in test [6] is more than 128 µM; in test [14] it was more than 128 µM; in [15], not below 128 µM; in test [16], not below 128 µM; in test [17], more than 128 µM; in test [11], 32 µM (≈ 99 µg/mL).
